Experimental data taken from ChEMBL document CHEMBL1201862, “PubChem BioAssay data set” (2004).
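1) Cells in 96-well plates. 2) Compound, 48 h, 5 concentrations. 3) Linear interpolation between surrounding doses. 4) Unreached endpoint = highest concentration. At the GI50, growth is halved.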 Activity calls are given as the source filed them. Cut-off read from the data, not from the text of the source: active = GI50 up to about 1.1 µM and inactive = higher.

How the values were obtained:
Assay in all cases: NCI-60 cell line screen, 48 h
[1] = test system: K562
[2] = test system: RXF 393
[3] = test system: SNB-75
[4] = test system: NCI-H226
[5] = test system: HOP-92
[6] = test system: HCT-116
[7] = test system: EKVX
[8] = test system: U-251
[9] = test system: SK-MEL-5
[10] = test system: A549
[11] = test system: UACC-62
[12] = test system: Malme-3M
[13] = test system: 786-0
[14] = test system: SK-OV-3
[15] = test system: SR
[16] = test system: OVCAR-4
[17] = test system: A498

Measured: GI50

O=C1CCCCC1S(=O)(=O)c1ccccc1 (centres undefined)
inactive: [1] > 100 µM | [2] > 100 µM | [3] > 100 µM | [4] > 100 µM | [5] > 100 µM | [6] > 100 µM | [7] > 100 µM | [8] > 100 µM | [9] > 100 µM | [10] > 100 µM | [11] > 100 µM | [12] > 100 µM | [13] > 100 µM | [14] > 100 µM | [15] > 100 µM | [16] > 100 µM | [17] > 100 µM

Cc1ccc(S(=O)(=O)NC(=O)NC23CC4CC(CC(F)(C4)C2)C3)cc1
inactive: [1] > 100 µM | [2] > 100 µM | [3] 73.6 µM | [5] > 100 µM | [6] > 100 µM | [7] > 100 µM | [8] > 100 µM | [9] > 100 µM | [10] > 100 µM | [11] > 100 µM | [12] > 100 µM | [13] > 100 µM | [14] > 100 µM | [17] > 100 µM

O=C1[C@H]2ON(c3ccccc3)C(c3ccc(Cl)cc3Cl)[C@H]2C(=O)N1c1ccc(Cc2ccc(N3C(=O)[C@@H]4ON(c5ccccc5)C(c5ccc(Cl)cc5Cl)[C@@H]4C3=O)cc2)cc1 (some centres undefined)
inactive: [1] > 100 µM | [3] > 100 µM | [4] > 100 µM | [5] > 100 µM | [6] > 100 µM | [7] > 100 µM | [8] > 100 µM | [9] 73.1 µM | [10] > 100 µM | [11] > 100 µM | [12] 96.8 µM | [13] > 100 µM | [14] > 100 µM | [15] 44.1 µM | [16] > 100 µM | [17] > 100 µM

CCCCCCCCCCSC(=O)NC
inactive: [1] 25.8 µM | [2] 19.9 µM | [3] 48.8 µM | [5] 18.6 µM | [7] 27.2 µM | [8] 25.8 µM | [9] 20.5 µM | [10] 37.8 µM | [11] 35.5 µM | [12] 36.3 µM | [13] 35.2 µM | [14] > 100 µM | [16] 36.7 µM | [17] 37.5 µM

O=C(c1ccc(Cl)cc1)c1ccc(OCCCOc2ccc(C(=O)c3ccc(Cl)cc3)cc2Cl)c(Cl)c1
inactive: [1] > 100 µM | [2] > 100 µM | [3] > 100 µM | [4] > 100 µM | [5] > 100 µM | [6] > 100 µM | [7] > 100 µM | [8] > 100 µM | [9] > 100 µM | [10] > 100 µM | [11] > 100 µM | [12] > 100 µM | [13] > 100 µM | [14] > 100 µM | [15] > 100 µM | [16] > 100 µM

CC(=O)COC(=O)CC(C)=O
inactive: [1] > 100 µM | [2] > 100 µM | [3] > 100 µM | [4] > 100 µM | [6] > 100 µM | [7] > 100 µM | [8] > 100 µM | [10] > 100 µM | [11] > 100 µM | [12] > 100 µM | [13] > 100 µM | [14] > 100 µM | [15] > 100 µM | [16] > 100 µM

CSc1n[n+]2c(s1)SCCC2
inactive: [1] > 100 µM | [2] > 100 µM | [3] 42.8 µM | [5] > 100 µM | [6] > 100 µM | [8] > 100 µM | [9] 46.5 µM | [10] 20.5 µM | [11] > 100 µM | [12] > 100 µM | [13] > 100 µM | [15] > 100 µM | [16] > 100 µM

CN(CCc1ccccn1)/[N+]([O-])=N/O.CNCCc1ccccn1
inactive: [1] > 100 µM | [2] > 100 µM | [3] > 100 µM | [4] > 100 µM | [5] > 100 µM | [6] > 100 µM | [7] > 100 µM | [9] > 100 µM | [10] > 100 µM | [11] > 100 µM | [12] > 100 µM | [13] > 100 µM | [15] > 100 µM | [16] > 100 µM

Cc1cc2oc(=O)[nH]c(=S)c2c(C)c1C
inactive: [1] > 100 µM | [2] > 100 µM | [3] > 100 µM | [4] > 100 µM | [5] > 100 µM | [6] > 100 µM | [7] 48.2 µM | [8] > 100 µM | [10] > 100 µM | [11] > 100 µM | [12] > 100 µM | [13] > 100 µM | [14] > 100 µM | [15] > 100 µM | [16] 45.2 µM | [17] > 100 µM

COc1cc2c(cc1OC)[C@H]1C(COC(=O)Nc3ccccc3)CN1CC2 (some centres undefined)
inactive: [1] > 100 µM | [2] 58.5 µM | [3] 18.6 µM | [5] 69.3 µM | [6] > 100 µM | [8] > 100 µM | [9] 53.8 µM | [10] > 100 µM | [11] > 100 µM | [12] > 100 µM | [13] > 100 µM | [14] > 100 µM | [15] 75.3 µM | [16] > 100 µM | [17] 70.6 µM

COc1cc(CC2c3cc(OC)c(OC)cc3CCN2C)ccc1O (centres undefined)
inactive: [1] > 100 µM | [3] > 100 µM | [6] > 100 µM | [7] > 100 µM | [8] > 100 µM | [9] > 100 µM | [10] > 100 µM | [12] > 100 µM | [13] > 100 µM | [16] > 100 µM | [17] > 100 µM

Clc1ccc(-n2nnc(C3=NCCN3)c2-c2ccccc2)cc1
inactive: [1] > 100 µM | [2] > 100 µM | [3] 47.3 µM | [4] > 100 µM | [5] 68.7 µM | [6] > 100 µM | [7] > 100 µM | [8] > 100 µM | [9] 86.9 µM | [10] > 100 µM | [11] > 100 µM | [12] > 100 µM | [13] > 100 µM | [14] > 100 µM | [15] > 100 µM | [16] > 100 µM | [17] > 100 µM

C=C(C)C1Cc2c(cc(OC)c3c(=O)c4ccccc4n(C)c23)O1 (centres undefined)
inactive: [1] 57.5 µM | [2] > 100 µM | [3] 70 µM | [4] > 100 µM | [5] > 100 µM | [6] > 100 µM | [7] > 100 µM | [8] > 100 µM | [9] > 100 µM | [10] > 100 µM | [11] 37.8 µM | [12] > 100 µM | [13] > 100 µM | [14] > 100 µM | [15] > 100 µM | [16] > 100 µM | [17] > 100 µM
